Patent publication US20230193262A1, “Nucleic acid molecules capable of modulating target gene expression and uses thereof” (KOREA ADVANCED INSTITUTE OF SCIENCE AND TECHNOLOGY, priority 2021, published 2023)
{Cy5.5} = Cy5.5 fluorophore label

What was measured:
Type in all cases: cell-based
[1] = system: MCF-7 breast cancer cells; assay: Cell viability / apoptosis in MCF-7; conditions: single siRNA, final concentration 60 nM
Experimental: (§1) The miRNA triggers were assayed for cytotoxicity and apoptosis induction, using the CCK-8 (Cell Counting Kit-8) (Dojindo, Kumamoto, Japan) according to the manufacturer's instruction. Cells were incubated in 96-well plates (5×10^3 cells/well) at 37° C. for 24 hours under a 5% CO2 atmosphere, followed by transfection. Three days after transfection, the medium was removed. A 10-fold dilution of CCK-8 solution in DMEM was added to the cells which were then incubated at 37° C. for 2 hours. After incubation, absorbance was read at 450 nm on Tecan Infinite M200 pro microplate reader (Mnnedorf, Switzerland).
An siRNA targeting bcl-2, bcl-xL, or mcl-1 was transfected into MCF-7 breast cancer cells and PANC-1 pancreatic cancer cells. By using qRT-PCR, establishment was made of a condition under which the expression of each target gene is decreased by 80% or more (transfection was performed at a concentration of 60 nM with the aid of Lipofectamine). As a negative control, a Luc (Luciferase)-targeting siRNA (siLuc) was used. Under the same condition of decreasing the expression of each target gene by 80% or more, the cells transfected with the siRNAs were measured for apoptosis, and the results are depicted in FIGS. 14a and 14b.
Linear miRNA triggers that could bind to miR-141 or let7f and target bcl-xL or mcl-1 were prepared and transfected alone or in combination into the breast cancer cell line MCF-7 which was then measured for cell viability. Every nucleotide of the triggers and controls was chemically modified with 2′-OMe.
First, MCF-7 was measured for cell viability after treatment with siMCL-1, siBCL-xL, and siBCL-2 (FIG. 48). […] The final concentration of the siRNAs was 60 nM.
Next, examination was made of the apoptosis when two or more genes were regulated together. MCF-7 was measured for cell viability after treatment with siMCL-1+siBCL-xL, siMCL-1+siBCL-2, siBCL-xL+siBCL-2, and siMCL-1+siBCL-xL+siBCL-2 (FIG. 49).
Finally, experiments under all the conditions (individual and simultaneous regulation) were conducted simultaneously so as to compare effects thereof. […]

cleaved PARP = assay: Western blot of apoptotic marker cleaved PARP; conditions: blood cancer cell line HL-60
Experimental: miRNA triggers were transfected into cells in the same manner as in Reference Example 4. After 72 hours, the cells were collected using a cell scraper and lysed with a RIPA buffer (NaCl 150 mM, EDTA 5 mM, Tris 50 mM, NP-40 1.0%, sodium deoxycholate 0.5%, SDS 0.1%). The cell lysate was sonicated 15 times, each for 20 sec, with a halt for 30 sec every sonication. Following centrifugation at 5,000 g for 5 min, the supernatant was taken and used to extract proteins therefrom. A total of 30-40 μg of protein sample was separated in 10-15% SDS-PAGE gel and transferred onto a PVDF membrane through a semi-dry blotting system. The membrane was blocked for 1 hour in 5% skimmed milk and incubated for 2 hours with a 1,000-fold dilution of a primary antibody in, 1% skimmed milk. […] The membrane incubated with the secondary antibody was washed three times with 1×PBST for 10 min each wash, and then reacted with Clarity Western ECL Substrate (#1705061, Bio-Rad), after which images were obtained and analyzed using ChemiDoc (Bio-rad, Hercules, USA). […]
The cells transfected with the selected miRNA triggers were measured for protein expression levels of the target Bcl-xL and the apoptotic marker cleaved PARP through western blotting, and the results are depicted in FIG. 32b.

[2] = system: breast cancer cell line MDA-MB-231; assay: Cell viability / apoptosis in MDA-MB-231
Experimental: as §1
The seven linear miRNA triggers prepared above and the positive control siRNA(siBcl-xL) capable of binding to bcL-xL were transfected into the breast cancer cell line MDA-MB-231 in which miR-222 is overexpressed. Cell viability was measured and is depicted in FIG. 32a.
Linear miRNA triggers that could bind to miR-222 and target bcl-xL and mcl-1, respectively, were prepared and transfected alone or in combination into the breast cancer cell line MDA-MB-231. Cell viability was measured and the measurements are depicted in FIG. 34. siRNAs against Mcl-1 and Bcl-xL were used as controls. […]
The hairpin miRNA triggers prepared above were transfected into MDA-MB-231 and MDA-MB-453 cells which were then measured for cell viability. […]

[3] = system: breast cancer cell line MDA-MB-453; assay: Cell viability / apoptosis in MDA-MB-453; conditions: for apoptosis: MDA-MB-453
Experimental: as §1
(§2) The selected linear miRNA triggers (bcl-xL(1)_22_2222 and bcl-xL(2)_222_222) were transfected into the breast cancer cell line MDA-MB-453 to which miR-222 is not endogenous. Cell viability, and the mRNA and protein expression levels of the target gene (bcl-xL) were measured and the results are depicted in FIGS. 33a to 33c.
The hairpin miRNA triggers prepared above were transfected into MDA-MB-231 and MDA-MB-453 cells which were then measured for cell viability. The results are depicted in FIG. 37.
The MCL-1-222-222 miRNA trigger, which utilizes miR-222 to regulate MCL-1 gene, and the BCL-xL-let7f-let7f miRNA trigger, which utilizes miR-let7f to regulate BCL-xL gene, were administered to MDA-MB-231 and MDA-MB-453.
Next, apoptosis was examined when the two types of miRNA triggers were co-administered to cells. The total concentration of the two triggers was 120 nM, which was the same as for individual miRNAs. The results are depicted in FIG. 47.

Hela-141 cells = assay: Cell viability / apoptosis (CCK-8) in Hela-141 cells; conditions: Hela-141 cells (express miR-141)
Experimental: as §1
(§3) The linear miRNA triggers or siRNAs (siLuc and siMcl-1) prepared above were transfected into Hela, Hela-141, and Hela-200c cells which were then measured for cell viability. The results are depicted in FIG. 15.
The hairpin miRNA triggers prepared above were transfected into Hela and Hela-141 cells which were then assayed for apoptosis. As a control, the siRNA (siMcl-1; Table 14) which can repress the expression of mcl-1 was transfected to Hela and Hela-141 cells and measured for apoptotic activity.

Hela-200c cells = assay: Cell viability / apoptosis (CCK-8) in Hela-200c cells
Experimental: as §1, §3

Mcl-1 = assay: Western blot of Mcl-1 protein in Hela-141 cells; conditions: 5 to 120 nM, compared to the control Luc-141-141
Experimental: (§4) miRNA triggers were transfected into cells in the same manner as in Reference Example 4. After 72 hours, the cells were collected using a cell scraper and lysed with a RIPA buffer (NaCl 150 mM, EDTA 5 mM, Tris 50 mM, NP-40 1.0%, sodium deoxycholate 0.5%, SDS 0.1%). The cell lysate was sonicated 15 times, each for 20 sec, with a halt for 30 sec every sonication. Following centrifugation at 5,000 g for 5 min, the supernatant was taken and used to extract proteins therefrom. A total of 30-40 μg of protein sample was separated in 10-15% SDS-PAGE gel and transferred onto a PVDF membrane through a semi-dry blotting system. The membrane was blocked for 1 hour in 5% skimmed milk and incubated for 2 hours with a 1,000-fold dilution of a primary antibody in, 1% skimmed milk. […] The membrane incubated with the secondary antibody was washed three times with 1×PBST for 10 min each wash, and then reacted with Clarity Western ECL Substrate (#1705061, Bio-Rad), after which images were obtained and analyzed using ChemiDoc (Bio-rad, Hercules, USA).
A linear miRNA trigger (Mcl-1-141-141; Table 15) that could bind to miR-141 and target mcl-1 was prepared while a linear miRNA trigger (Luc-141-141; Table 9) that could bind to miR-141 and target Luc (luciferase) was used as a control. […] Then, proteins were extracted from the Hela-141 cells and quantitatively analyzed for Mcl-1 protein level by western blotting. […]

[4] = system: MOLM-14, MV4-11 and Hela cells; assay: Fluorescence (IVIS 100) of cells transfected with Cy5.5-labeled trigger; conditions: Lipofectamine
Experimental: With the aid of Lipofectamine, the linear miRNA trigger (5′-Cy5.5-miR-155-miR-155-PKR-3′) was transfected into the FLT3-ITD mutant AML cell lines MOLM-14 and MV4-11 and the solid cancer cell line Hela. […] Subsequent animal tests were performed with the trigger.

Bcl-xL = assay: Western blot of Bcl-xL protein; conditions: MDA-MB-453
Experimental: as §4
The cells transfected with the selected miRNA triggers were measured for protein expression levels of the target Bcl-xL and the apoptotic marker cleaved PARP through western blotting, and the results are depicted in FIG. 32b. […]

BCL-xL mRNA = assay: bcl-xL mRNA expression / gene regulation efficiency; conditions: MDA-MB-453
Experimental: In the same manner as in Reference Example 4, miRNA triggers were transfected into cells. After 48 hours, total RNA was extracted using TRIzol (Thermo Fisher Scientific) according to the manufacturer's instruction. The purified RNA was treated with DNase I and then reverse transcribed in the presence of RevertAid reverse transcriptase (Thermo Fisher Scientific), with random hexamers (Thermo Fisher Scientific) serving as primers. For use in amplification of target genes, primers for target genes were added, together with the cDNA, to the SYBR Green PCR master mix (Thermo Fisher Scientific). RT-qPCR was conducted on a StepOnePlus real-time PCR system. Cq values obtained from this analysis was quantitatively analyzed based on the 2^−ΔΔC(t) method.
as §2
After treatment with miRNA triggers, mRNA expression levels of the target gene BCL-xL were measured. […]

siBcl-2: siRNA targeting bcl-2; SEQ ID NO 62 (AUCAAUCUUCAGCACUCUC; listed as RNA, chemistry not given here)
apoptosis (cell viability) [1]: apoptosis was detected | expression of the apoptotic marker cleaved PARP (cleaved PARP): upregulated

MCL-1-let7f-let7f: linear miRNA trigger designed to knock down MCL-1 by using miR-let7f; SEQ ID NO 113 (AACUAUACAAUGAACUACCUCAAACUAUACAAUGAACUACCUCACCGAACUACGUAGC; all 2'-O-methyl, backbone not given here)
apoptosis ([2]; Examples 12-13): none of the two cell lines were induced to undergo apoptosis | apoptosis ([3]; Example 13): none of the two cell lines were induced to undergo apoptosis

MCL-1-222-222: linear miRNA trigger which utilizes miR-222 to regulate MCL-1 gene; SEQ ID NO 109 (ACCCAGUAGCCAGAUGUAGCUACCCAGUAGCCAGAUGUAGCUCCGAACUACGUAGC; all 2'-O-methyl, backbone not given here)
apoptosis ([2]; 120 nM (total)): no apoptosis was observed | apoptosis ([3]; 120 nM (total)): did not induce apoptosis

Mcl-1-141-141: linear miRNA trigger binding miR-141 and targeting mcl-1; SEQ ID NO 65 (Table 25: 110) (CCAUCUUUACCUCACAGUGUUACCAUCUUUACCUCACAGUGUUACCGAACUACGUAGC; all 2'-O-methyl, backbone not given here)
apoptosis induced (Hela-141 cells): up to 40% | apoptosis / cell viability (Hela-200c cells): no significant influence on cell viability | Mcl-1 protein level (Mcl-1): significantly decreased in Mcl-1 protein level

B1: 5′-Cy5.5-miR-155-miR-155-PKR-3′: linear miRNA trigger binding miR-155, targeting PKR, labeled with Cy5.5 fluorophore; SEQ ID NO 69 (conjugate)
chain: UUAUGUUUCAGGUUCAGGGGGAUUAUGUUUCCAGGUUCAGGGGGAUAUGUGAGGCAGAGAACGA
modifications: all 2'-O-methyl, 5' {Cy5.5}, backbone not given here
Cy5.5 fluorescence of transfected cells [4]: Fluorescence was detected

B2: bcl-xL(1)_222_222: linear miRNA trigger binding miR-222 and knocking down bcl-xL; SEQ ID NO 106 (nucleic acid)
chain: ACCCAGUAGCCAGAUGUAGCUACCCAGUAGCCAGAUGUAGCUUCUCCUUCCUGCCCUUCCU
modifications: all 2'-O-methyl, backbone not given here
cell viability ([3]; MDA-MB-453 (does not express miR-222)): did not significantly change | protein expression level of target bcl-xL (Bcl-xL): did not significantly change | mRNA expression level of target bcl-xL (BCL-xL mRNA): did not significantly change
